Data on 24 molecules can be found in ChEMBL document CHEMBL1145633, “Inhibitors of the tyrosine kinase EphB4. Part 1: Structure-based design and optimization of a series of 2,4-bis-anilinopyrimidines” (Bioorg Med Chem Lett, 2008).

Each structure is given as a SMILES string.

This assay deals with T1, Ephrin type-B receptor 4 (Homo sapiens, UniProt P54760).
T1 sequence (P54760 whole entry): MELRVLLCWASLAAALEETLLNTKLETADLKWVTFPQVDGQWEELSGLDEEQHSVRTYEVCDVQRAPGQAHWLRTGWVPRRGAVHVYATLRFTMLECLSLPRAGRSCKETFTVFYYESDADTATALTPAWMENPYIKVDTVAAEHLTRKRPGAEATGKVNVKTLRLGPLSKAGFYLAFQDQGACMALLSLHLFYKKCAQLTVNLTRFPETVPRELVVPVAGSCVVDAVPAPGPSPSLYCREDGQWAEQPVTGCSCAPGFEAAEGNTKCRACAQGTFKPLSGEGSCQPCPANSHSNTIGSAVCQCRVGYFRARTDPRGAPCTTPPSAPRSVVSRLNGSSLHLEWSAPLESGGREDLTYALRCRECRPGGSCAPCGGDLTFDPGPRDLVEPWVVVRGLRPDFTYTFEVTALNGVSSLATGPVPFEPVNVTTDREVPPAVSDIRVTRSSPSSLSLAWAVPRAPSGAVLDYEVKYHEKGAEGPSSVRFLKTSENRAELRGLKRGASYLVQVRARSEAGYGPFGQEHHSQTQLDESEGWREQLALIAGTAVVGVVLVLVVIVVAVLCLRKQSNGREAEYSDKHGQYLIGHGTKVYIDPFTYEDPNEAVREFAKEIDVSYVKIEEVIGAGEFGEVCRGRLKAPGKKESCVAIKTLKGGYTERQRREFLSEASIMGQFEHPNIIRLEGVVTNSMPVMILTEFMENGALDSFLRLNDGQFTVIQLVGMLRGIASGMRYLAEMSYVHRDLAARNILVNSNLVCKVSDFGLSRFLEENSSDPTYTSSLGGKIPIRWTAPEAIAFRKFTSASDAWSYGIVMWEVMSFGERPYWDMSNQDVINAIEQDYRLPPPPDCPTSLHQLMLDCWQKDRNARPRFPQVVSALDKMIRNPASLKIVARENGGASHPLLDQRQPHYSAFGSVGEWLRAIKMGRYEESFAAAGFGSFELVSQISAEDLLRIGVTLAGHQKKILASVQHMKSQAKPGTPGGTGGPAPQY
Briefly: Inhibition of EphB4.
On to `CS(=O)(=O)c1ccccc1Nc1nccc(Nc2c(Cl)ccc3c2OCO3)n1`, for which the IC50 (in general, the concentration at which inhibition is half-maximal) was 41000 nM. In other words, the double-digit micromolar range.
The value for `Clc1ccc2c(c1Nc1ccnc(Nc3ccc(N4CCOCC4)cc3)n1)OCO2` was 1000 nM; that for `Fc1cccc(Nc2nccc(Nc3c(Cl)ccc4c3OCO4)n2)c1` was 1150 nM.
`COc1cccc(Nc2nccc(Nc3c(Cl)ccc4c3OCO4)n2)c1` came in with an IC50 of 640 nM.
Under `Cc1cccc(Nc2nccc(Nc3c(Cl)ccc4c3OCO4)n2)c1` stands 460 nM.
With `Fc1ccc(Nc2nccc(Nc3c(Cl)ccc4c3OCO4)n2)cc1`, the concentration for half-maximal inhibition (IC50) was found to be 2300 nM.
Turning to `Fc1ccccc1Nc1nccc(Nc2c(Cl)ccc3c2OCO3)n1`, 5000 nM corresponded to half-maximal inhibition (IC50). Compared with the last molecule, the IC50 is about 2.2-fold higher.
Molecule `Cc1ccccc1Nc1nccc(Nc2c(Cl)ccc3c2OCO3)n1` showed an IC50 of 14000 nM.
The value for `Clc1ccc2c(c1Nc1ccnc(Nc3ccccc3N3CCOCC3)n1)OCO2` was 7850 nM; that for `Clc1ccc(Nc2nccc(Nc3c(Cl)ccc4c3OCO4)n2)cc1` was 6000 nM; that for `Clc1ccccc1Nc1nccc(Nc2c(Cl)ccc3c2OCO3)n1` was 11300 nM.
As for `NS(=O)(=O)c1ccc(Nc2nccc(Nc3c(Cl)ccc4c3OCO4)n2)cc1`, 300 nM corresponded to half-maximal inhibition (IC50).
The value for `Cc1ccc(Nc2nccc(Nc3c(Cl)ccc4c3OCO4)n2)cc1` was 1600 nM.
The value for `COc1cc(Nc2cc(Nc3c(Cl)ccc4c3OCO4)ncn2)cc(OC)c1OC` was 2540 nM; that for `Clc1ccc2c(c1Nc1ccnc(Nc3ccccc3)n1)OCO2` was 1550 nM.
Molecule `NS(=O)(=O)c1ccccc1Nc1nccc(Nc2c(Cl)ccc3c2OCO3)n1` showed an IC50 of 35500 nM. This IC50 lies about 23-fold higher than the previous one.
Molecule `Clc1cccc(Nc2nccc(Nc3c(Cl)ccc4c3OCO4)n2)c1` displayed an IC50 of 1330 nM.
Consider `COc1ccccc1Nc1nccc(Nc2c(Cl)ccc3c2OCO3)n1`, for which the half-maximal inhibitory concentration (IC50) was determined as 3880 nM.
For the molecule `COc1ccc(Nc2nccc(Nc3c(Cl)ccc4c3OCO4)n2)cc1`, the half-maximal inhibitory concentration (IC50) came to 1940 nM.
`COc1cc(Nc2ncnc(Nc3c(Cl)ccc4c3OCO4)n2)cc(OC)c1OC` had a half-inhibitory concentration (IC50) of 2960 nM.
Under `N#Cc1ccccc1Nc1nccc(Nc2c(Cl)ccc3c2OCO3)n1` stands 20500 nM; under `N#Cc1ccc(Nc2nccc(Nc3c(Cl)ccc4c3OCO4)n2)cc1`, 1250 nM; under `N#Cc1cccc(Nc2nccc(Nc3c(Cl)ccc4c3OCO4)n2)c1`, 550 nM.
In turn, `CS(=O)(=O)c1ccc(Nc2nccc(Nc3c(Cl)ccc4c3OCO4)n2)cc1` had an IC50 of 630 nM. The IC50 values of the last two molecules are within 1.5-fold of each other.
